Laboratory results reported in patent publication US20110027354A1, “ANTI-PA[…]” (priority 2008, published 2011).

Assays:
mice [1] = test: Conditioned place preference (CPP); format: in vivo; settings: selegiline or MPPE 2.5 or 5.0 mg/kg i.p., MA 0.5 or 1.0 mg/kg i.p.; vs. saline
Description: For conditioned place preference (CPP) test, mice received an i.p. injection of saline just before entering the […] compartment. MA (0.5 or 1.0 mg/kg, i.p.), selegiline (2.5 or 5.0 mg/kg, i.p.), and MPPE (2.5 or 5.0 mg/kg, i.p.) dissolved in saline was administered immediately before the mice were placed in the white compartment. On day 1, the mice were pre-exposed to the test apparatus for 15 minutes. The guillotine style doors were raised and mice were allowed to move freely between the two compartments. On day 2, the time each mouse spent in each compartment was recorded for 15 minutes. On days 3, 5, 7, 9, 11, and 13, the mice were injected with each drug before being confined to the white compartment, the non-preferred side, for 40 minutes. On day 14, the guillotine doors were raised. The mice were initially placed in the tunnel and the time spent by the mice in the two compartments was recorded for 15 minutes. The scores were calculated from the differences in the time spent in the white compartment in the testing and pre-testing phases. Data were analyzed between 09:00 and 17:00 hours.

mice [2] = test: Locomotor activity after repeated treatment with drug alone; format: in vivo; settings: repeated treatment i.p./day×7, selegiline or MPPE 2.5 or 5.0 mg/kg, MA 0.5 or 1.0 mg/kg
Description: Selegiline or […] was injected (2.5 or 5 mg/kg, i.p.) once a day for 7 consecutive days. Methamphetamine, a positive control, was also administered (0.5 or 1 mg/kg, i.p.) once a day for 7 days.
Locomotor activity measured for 30 min one day after the last MPTP administration using an automated video-tracking system (Noldus Information Technology, Wagenin, The Netherlands). Eight test boxes (40×40×30 cm high) were operated simultaneously by an IBM computer. Animals were studied individually during locomotion in each test box, where they were adapted for 5 min before starting the experiment. […] The distance traveled in cm by the animals in horizontal locomotor activity was analyzed. Data were collected and analyzed between 09:00 and 17:00 h (Kim et al., 2001).

CN[C@@H](C)Cc1ccccc1 [MA, methamphetamine]
conditioned place preference (CPP) (mice [1]): significantly increased compared with saline
locomotor patterns (mice [2]): typical circling locomotor patterns
locomotor activities (mice [2]; vs. saline): significantly increased
